The test system of experiment [1] is JAK1/p-STAT3(Tyr705) activated by IL-6 in TF-1 cell line. As to the kind of experiment: IL-6-JAK1/p-STAT3(Tyr705) inhibition cellular assay. The experiment is classed as cell-based. The conditions noted are these: Homo sapiens, 0.5 h; TF-1 cells, IL-6 50 ng/ml, 30 min; read-out: Cellular assay pSTAT3/IL-6 IC50. An excerpt:
Assay D: IL-6-JAK1/p-STAT3(Tyr705) Inhibition IC50 Cellular Assay
To evaluate the inhibition effect of compounds disclosed herein on JAK1/p-STAT3(Tyr705) activated by IL-6 in TF-1 cell line, TF-1 cells were collected and washed 3 times by DPBS and resuspended in RPMI-1640 (phenol red free, Gibco, Cat #11835-030) with 0.1% FBS (Gibco, Cat #10099, Lot #1891605), without GM-CSF(R&D systems,Cat #215-GM-050), starved overnight. Cells were collected and resuspended in 1640 medium (phenol red free, Gibco, Cat #11835-030) with 0.1% BSA, and 12.5 μl/10×10^4/well cell suspension were seeded to the 96-well plate (Corning, Cat #3799). Then cells were treated with compounds diluted in 0.2% DMSO 1640 medium, at 37° C., 1 h. Dilution is done according to the following protocol: (1) make 500× compounds solution in DMSO from 5 mM by 4-fold dilution, total 8 doses were included; (3) make 2× compounds solution in assay medium by transferring 0.5 μl serial 500× stock solution into 125 μl assay medium; (4) 15 μl of 2× solution is added to cells and incubate at 37° C. for 1 h, the final compound conc. is 10000,2500,625,156.25,39,9.8,2.4 and 0.61 nM, respectively. After 1 h, cells were treated with 2.5 μl medium containing IL-6 at 37° C. (R&D systems, Cat #206-IL-010, final conc.50 ng/ml), 30 min. Following cells were lysed with 10 μl lysis buffer at RT, shaking on shaker for 1 h. 16 μL of cell lysate were transferred to a PE 384-well HTRF detection plate, and 4 μL of pre-mixed HTRF antibodies were added to each well. Covered the plate with a plate sealer, span 1000 rpm for 1 min, mix, Incubated overnight at room temperature. Read on BMG PheraStar with HTRF protocol (337 nm-665 nm-620 nm). IC 50 values were calculated by fitting dependent data to the four-parameter logistic model using dotmatics software. The assay was performed by using HTRF Phospho-STAT3(Tyr705) Cellular Assay Kit (Cisbio, Cat #62AT3PEG).

Experiment [2] has as its target T1, TYK2-JH2 (aa 575-869, in-house) protein (Homo sapiens, UniProt P29597).
T1 construct: TYK2-JH2 (aa 575-869, in-house) protein; made in house
As to the kind of experiment: TYK2-JH2 biochemical assay (HTRF, blocking of TYK2-JH2 protein with its probe). The experiment is classed as binding. The conditions noted are these: for IC50: HTRF, 0.2 nM recombinant TYK2-JH2, Probe 1; for Biochemical assay Selectivity fold (TYK2/JAK1): TYK2-JH2 vs JAK1-JH2 biochemical IC50. As for the experimental part: Assay A: TYK2-JH2 Biochemical Assay
Compounds disclosed herein were tested for blocking of TYK2-JH2 (aa 575-869, in-house) protein with its probe in an assay based on Homogeneous Time Resolved Fluorescence.
Compound dilution is done according to the following protocol: (1) Prepare 500× compounds solution in DMSO from 500 uM by 5-fold dilution, total 10 doses were included; (2) Prepare 10× compounds solution in an assay buffer containing 20 mM HEPES, pH 7.5, 10 mM MgCl2, 0.005% BSA, 2 mM DTT, 0.015% Brij-35 by transferring 1 μl serial 500× stock solution into 49 μl assay buffer. 4 μl of 0.2 nM recombinant TYK2-JH2 protein was pre-incubated with 1 μl of 10×serial dilution of compounds at room temperature for 0.5 hour. Then 5 μl of 10 nM in-house Probe 1 (6-((3,5-dimethylphenyl)amino)-8-((4,26-dioxo-30-((3aS,4S,6aR)-2-oxohexahydro-1H-thieno[3,4-d]imidazol-4-yl)-7,10,13,16,19,22-hexaoxa-3,25-diazatriacontyl)amino)imidazo[1,2-b]pyridazine-3-carboxamide, KD=10 nM), 5 μl Mab Anti-6His Tb cryptate Gold (Cat: 61HI2TLB, Cisbio Bioassays) and Streptavidin-XL665(Cat: 610SAXLB, Cisobio Bioassays) mixture were added to plate and further incubated at room temperature for 1 hour. The HTRF signals (ex337 nm, em620 nm/665 nm) were read on BMG PHERAstar FS instrument. The inhibition percentage of TYK2 interaction with its probe in presence of increasing concentrations of compounds was calculated based on the ratio of fluorescence at […]. The IC50 for each compound was derived from fitting the data to the four-parameter logistic equation by Dotmatics.
(In TR-FRET formats the signal depends on donor and acceptor labels being close together.)

Experiment [3] concerns JAK2, TYK2/p-STAT4 (Tyr693) activated by IL-12 in NK-92 cell line. As to the kind of experiment: IL-12-JAK2, TYK2/p-STAT4 (Tyr693) inhibition cellular assay. The experiment is classed as cell-based. The conditions noted are these: for IC50: NK92, 0.5 h, NK-92 cells, IL-12 40 ng/ml, 30 min, read-out: Cellular assay pSTAT4/IL-12 IC50; for Cellular assay Selectivity fold (TYK2/JAK1): pSTAT4/IL-12 vs pSTAT3/IL-6 cellular IC50. An excerpt:
Assay C: IL-12-JAK2, TYK2/p-STAT4 (Tyr693) Inhibition IC50 Cellular Assay
To evaluate the inhibition effect of compounds disclosed herein on JAK2, TYK2/p-STAT4 (Tyr693) activated by IL-12 in NK-92 cell line, NK-92 cells were collected and washed 3 times by DPBS and resuspended in MEM-α(GIBCO,Cat #12561056) with 10% FBS (Gibco, Cat #10099, Lot #1891605), without IL-2 (R&D systems,Cat #202-IL), starved overnight. Cells were collected and resuspended in 1640 medium (phenol red free, Gibco, Cat #11835-030) with 0.1% BSA, and 12.5 μl/5×10^4/well cell suspension were seeded to the 96-well plate (Corning, Cat #3799). Then cells were treated with compounds diluted in 0.2% DMSO 1640 medium, at 37° C., 1 h. Dilution is done according to the following protocol: (1) make 500× compounds solution in DMSO from 5 mM by 4-fold dilution, total 8 doses were included; (3) make 2× compounds solution in assay medium by transferring 0.5 μl serial 500× stock solution into 125 μl assay medium; (4) 15 μl of 2× serial solution is added to cells and incubate at 37° C. for 1 h, the final compound conc. is 10000,2500,625,156.25,39,9.8,2.4 and 0.61 nM, respectively. After 1 h, cells were treated with 2.5 μl medium containing IL-12 at 37° C. (R&D systems, Cat #219-IL-005, final conc.40 ng/ml), 30 min. Following cells were lysed with 7.5 μl lysis buffer at RT, shaking on shaker for 1 h. 10 μL of cell lysate were transferred to a PE 384-well Proxiplate detection plate, and 5 μL of pre-mixed Alphascreen beads were added to each well. Covered the plate with a plate sealer, span 1000 rpm for 1 min, mix, Incubated overnight at room temperature. Read on BMG PheraStar with Alphascreen protocol. IC 50 values were calculated by fitting dependent data to the four-parameter logistic model using dotmatics software. The assay was performed by using AlphaLISA SureFire Ultra p-STAT4 (Tyr693) Assay Kit—High Volume (PE, Cat #ALSU-PST4-A-HV).

Experiment [4] has as its target T2, JAK1-JH2 protein (aa 561-860, in-house) (Homo sapiens, UniProt P23458).
T2 construct: JAK1-JH2 protein (aa 561-860, in-house); made in house
As to the kind of experiment: JAK1-JH2 biochemical assay (HTRF, blocking of JAK1-JH2 protein with its probe). The experiment is classed as binding. The note with it: 1.17 nM recombinant JAK1-JH2, Probe 2. As for the experimental part:
Assay B: JAK1-JH2 Biochemical Assay
Compounds disclosed herein were tested for blocking of JAK1-JH2 protein (aa 561-860, in-house) with its probe in an assay based on Homogeneous Time Resolved Fluorescence. Compound dilution is done according to the following protocol: (1) Prepare 500× compounds solution in DMSO from 500 uM by 5-fold dilution, total 10 doses were included; (2) Prepare 10× compounds solution in an assay buffer containing 20 mM HEPES, pH 7.5, 10 mM MgCl2, 0.005% BSA, 2 mM DTT, 0.015% Brij-35 by transferring 1 μl serial 500× stock solution into 49 μl assay buffer. 4 μL of 1.17 nM recombinant JAK1-JH2 protein was pre-incubated with 1 μl of 10×serial dilution of compounds at room temperature for 0.5 hour. […] The HTRF signals (ex337 nm, em620 nm/665 nm) were read on BMG PHERAstar FS instrument. The inhibition percentage of JAK1 interaction with its probe in presence of increasing concentrations of compounds was calculated based on the ratio of fluorescence at 615 nm to that at 665 nm. The IC50 for each compound was derived from fitting the data to the four-parameter logistic equation by Dotmatics.

T2 sequence (P23458 561-860): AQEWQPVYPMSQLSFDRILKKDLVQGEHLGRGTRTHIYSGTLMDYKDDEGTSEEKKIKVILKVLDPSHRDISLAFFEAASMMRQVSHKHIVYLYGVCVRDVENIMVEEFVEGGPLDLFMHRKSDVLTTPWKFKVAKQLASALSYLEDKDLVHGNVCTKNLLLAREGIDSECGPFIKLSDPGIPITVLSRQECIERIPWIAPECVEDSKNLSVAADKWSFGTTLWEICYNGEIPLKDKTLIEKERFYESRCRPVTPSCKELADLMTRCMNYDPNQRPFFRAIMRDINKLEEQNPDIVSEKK
T1 sequence (P29597 575-869): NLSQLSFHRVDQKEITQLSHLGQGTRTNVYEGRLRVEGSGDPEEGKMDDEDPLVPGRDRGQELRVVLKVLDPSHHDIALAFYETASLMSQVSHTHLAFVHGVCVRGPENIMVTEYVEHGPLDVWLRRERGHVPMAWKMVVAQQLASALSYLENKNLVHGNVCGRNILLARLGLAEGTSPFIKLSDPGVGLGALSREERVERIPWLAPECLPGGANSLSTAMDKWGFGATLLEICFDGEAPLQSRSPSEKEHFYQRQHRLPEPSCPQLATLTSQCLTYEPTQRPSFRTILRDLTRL

Regarding `CNC(=O)c1nnc(NC(=O)C2CC2)cc1Nc1nc2ccc(N3CC(O)C3)cn2n1` [Example H1, 6-(cyclopropanecarboxamido)-4-((6-(3-hydroxyazetidin-1-yl)-[1,2,4]triazolo[1,5-a]pyridin-2-yl)amino)-N-methylpyridazine-3-carboxamide], the IC50 in experiment [1] was over 10000 nM; in experiment [2], 0.057 nM; in experiment [3], 34.2 nM; in experiment [4], 1.2 nM. In addition, the “Biochemical assay Selectivity fold (TYK2/JAK1)” value in experiment [2] is on record as 21 fold. For the same molecule, the “Cellular assay Selectivity fold (TYK2/JAK1)” value in experiment [3] is given as over 292 fold.

Regarding `CNC(=O)c1nnc(NC(=O)C2CC2)cc1Nc1nc2ccc(N3CC(F)(CO)C3)cn2n1` [Example J1, 6-(cyclopropanecarboxamido)-4-((6-(3-fluoro-3-(hydroxymethyl)azetidin-1-yl)-[1,2,4]triazolo[1,5-a]pyridin-2-yl)amino)-N-methylpyridazine-3-carboxamide], the IC50 was over 10000 nM in experiment [1], 0.086 nM in experiment [2], 15.6 nM in experiment [3] and 1.8 nM in experiment [4]. Besides, in experiment [2], the “Biochemical assay Selectivity fold (TYK2/JAK1)” value is on record as 21 fold. For the same molecule, the “Cellular assay Selectivity fold (TYK2/JAK1)” value in experiment [3] was over 641 fold.

Regarding `CNC(=O)c1nnc(NC(=O)C2CC2)cc1Nc1nc2ccc(N3CC(C(C)O)C3)cn2n1` (stereo not drawn) [Example G1, 6-(cyclopropanecarboxamido)-4-((6-(3-(1-hydroxyethyl)azetidin-1-yl)-[1,2,4]triazolo[1,5-a]pyridin-2-yl)amino)-N-methylpyridazine-3-carboxamide], the IC50 in experiment [1] is over 10000 nM; in experiment [2], 0.076 nM; in experiment [3], 9.05 nM; in experiment [4] it was 1.8 nM. Also, the “Biochemical assay Selectivity fold (TYK2/JAK1)” value in experiment [2] was determined as 24 fold. The “Cellular assay Selectivity fold (TYK2/JAK1)” value in experiment [3] was over 1104 fold.

In the case of `CNC(=O)c1nnc(NC(=O)C2CC2)cc1Nc1nc2ccc(N3CC(F)C3)cn2n1` [Example E9, 6-(cyclopropanecar-boxamido)-4-((6-(3-fluoroazetidin-1-yl)-[1,2,4]triazolo[1,5-a]pyridin-2-yl)amino)-N-methylpyridazine-3-carboxamide], the IC50 in experiment [1] is over 10000 nM; in experiment [2] it was 0.097 nM; in experiment [3], 19.6 nM; in experiment [4], 2.4 nM. Further, the “Biochemical assay Selectivity fold (TYK2/JAK1)” value in experiment [2] worked out at 25 fold. Besides, the “Cellular assay Selectivity fold (TYK2/JAK1)” value in experiment [3] was over 510 fold.

`CNC(=O)c1nnc(NC(=O)C2CC2)cc1Nc1nc2ccc(OC3CN(C(C)=O)C3)cn2n1` [Example C4, 4-((6-((1-acetylazetidin-3-yl)oxy)-[1,2,4]triazolo [1,5-a]pyridin-2-yl)amino)-6-(cyclopro-panecarbox-amido)-N-methyl-pyridazine-3-carboxamide]: the IC50 in experiment [1] is over 10000 nM; in experiment [2] it was 0.08 nM; in experiment [3], 309 nM; in experiment [4] it was 1.2 nM. In addition, the “Biochemical assay Selectivity fold (TYK2/JAK1)” value in experiment [2] worked out at 15 fold. In addition, in experiment [3], the “Cellular assay Selectivity fold (TYK2/JAK1)” value is on record as over 32 fold.

Regarding `CNC(=O)c1nnc(NC(=O)C2CC2)cc1Nc1nc2ccc(N3CC(C)(N(C)C)C3)cn2n1` [Example E6], the IC50 came out at 1640 nM in experiment [1], 0.056 nM in experiment [2], 15.4 nM in experiment [3] and 0.56 nM in experiment [4]. Besides, the “Biochemical assay Selectivity fold (TYK2/JAK1)” value in experiment [2] stood at 10 fold. In addition, in experiment [3], the “Cellular assay Selectivity fold (TYK2/JAK1)” value was determined as 106 fold.

Consider `CNC(=O)c1nnc(NC(=O)C2CC2)cc1Nc1nc2ccc(N3CCC3COC)cn2n1` (stereo not drawn) [Example E20, 6-(cyclopropanecar-boxamido)-4-((6-(2-(methoxymethyl)azetidin-1-yl)-[1,2,4]triazolo[1,5-a]pyridin-2-yl)amino)-N-methylpyridazine-3-carboxamide], for which the IC50 in experiment [1] is over 10000 nM; in experiment [2], 0.089 nM; in experiment [3], 16.4 nM; in experiment [4], 3.2 nM. The “Biochemical assay Selectivity fold (TYK2/JAK1)” value in experiment [2] was found to be 36 fold. In addition, the “Cellular assay Selectivity fold (TYK2/JAK1)” value in experiment [3] is listed as over 609 fold.

For the origin of these results see patent publication US12606556B2, “TYK-2 inhibitor” (BEIGENE, LTD., priority 2020, dated 2026).
